Laboratory results reported in US9745255B2, “Meta-substituted biphenyl peripherally restricted FAAH inhibitors” (The Regents of the University of California, priority 2011, dated 2017).
Where two headings read alike, the source gives them in different places.

What was measured:
FAAH [1] = molecular target: T1, FAAH (Mus musculus, UniProt O08914); experiment: Ex vivo FAAH activity in liver and brain tissue extracts after i.p. administration to mice; set-up: from tissue; host or cells: mouse liver and brain, membrane fraction of tissue extracts; conditions: for inhibition at 1 mg/kg: mouse, ip, Table 1, mice, 1 mg/kg intraperitoneal, killed 2 h after administration, ex vivo
T1 sequence (O08914 1-579): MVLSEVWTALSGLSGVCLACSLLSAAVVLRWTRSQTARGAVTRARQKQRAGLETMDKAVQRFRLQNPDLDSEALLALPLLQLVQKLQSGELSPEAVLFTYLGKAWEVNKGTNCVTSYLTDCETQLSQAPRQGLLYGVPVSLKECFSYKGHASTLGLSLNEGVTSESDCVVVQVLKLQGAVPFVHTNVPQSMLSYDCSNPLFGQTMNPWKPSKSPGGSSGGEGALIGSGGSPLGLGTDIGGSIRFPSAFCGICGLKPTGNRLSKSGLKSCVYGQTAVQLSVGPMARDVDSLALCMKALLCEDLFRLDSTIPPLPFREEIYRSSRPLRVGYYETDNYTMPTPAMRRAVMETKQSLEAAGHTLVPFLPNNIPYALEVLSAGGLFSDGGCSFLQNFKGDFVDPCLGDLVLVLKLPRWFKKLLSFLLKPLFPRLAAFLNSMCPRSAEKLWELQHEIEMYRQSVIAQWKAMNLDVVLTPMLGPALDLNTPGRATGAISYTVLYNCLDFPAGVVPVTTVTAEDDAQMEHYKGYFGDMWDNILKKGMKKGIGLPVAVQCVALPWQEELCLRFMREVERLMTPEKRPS
Experimental: (§1) Comparison of compounds according to the invention with other peripherally restricted FAAH inhibitors for their ability to inhibit FAAH in the periphery. […] In particular, (1) IC50 values were generated in vitro using a FAAH assay. […] Mice received a 1 mg/kg dose of each compound by the intraperitoneal route, and were killed 2 h after administration. Tissues were collected and FAAH activity was measured ex vivo in tissue extracts (membrane fraction) using the FAAH assay.

FAAH [2] = molecular target: T2, FAAH (Rattus norvegicus, UniProt P97612); experiment: In vitro FAAH assay (IC50, Tables 1 and 2); type: biochemical
T2 construct: Wistar rats were typically used for the FAAH studies; from tissue; host or cells: Wistar rat
T2 sequence (P97612 1-579): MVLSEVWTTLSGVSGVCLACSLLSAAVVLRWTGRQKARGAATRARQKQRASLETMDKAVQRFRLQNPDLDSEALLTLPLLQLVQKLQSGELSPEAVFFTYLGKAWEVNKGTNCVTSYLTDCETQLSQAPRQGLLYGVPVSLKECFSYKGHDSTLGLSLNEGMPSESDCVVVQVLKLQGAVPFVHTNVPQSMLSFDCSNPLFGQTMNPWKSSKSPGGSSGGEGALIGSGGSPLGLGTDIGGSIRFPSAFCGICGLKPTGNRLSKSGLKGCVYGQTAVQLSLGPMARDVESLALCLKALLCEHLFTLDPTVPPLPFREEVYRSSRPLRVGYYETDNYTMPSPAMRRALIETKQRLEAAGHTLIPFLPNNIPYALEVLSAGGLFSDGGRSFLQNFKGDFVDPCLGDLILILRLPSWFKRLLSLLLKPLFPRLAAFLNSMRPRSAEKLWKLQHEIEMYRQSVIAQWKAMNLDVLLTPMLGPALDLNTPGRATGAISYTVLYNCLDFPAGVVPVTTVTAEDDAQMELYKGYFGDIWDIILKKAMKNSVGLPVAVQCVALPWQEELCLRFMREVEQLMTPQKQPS
Experimental: Male Swiss Webster and CD1 mice (Charles River, 20-30 g) were used. Mice were group-housed in standard cages at room temperature on a 12:12 h light:dark cycle with unlimited access to water and standard chow pellets. Wistar rats were typically used for the FAAH studies. All experiments met the National Institutes of Health guidelines for the care and use of laboratory animals, were approved by the Institutional Animal Care and Use Committee of the University of California, Irvine, and the University of Georgia, Athens, and were in compliance with the European Community Council Directive 86 (609) EEC and the experimental protocol was carried out in compliance with Italian regulations (DL 116/92).
as §1

[3] = system: carrageenan-induced edema in male CD1 mice; experiment: Carrageenan-induced paw edema; type: in vivo, mouse; conditions: oral administration, 10 and 30 mg/kg, vs. vehicle (FIG. 1)
Experimental: (§2) Peripheral inflammation was induced by intraplantar (i.pl.) injection of the polysaccharide λ-carrageenan (i.pl. 1% weight vol^−1 in sterile water, 20 μL) into the left hind paw of male CD1 mice.
Paw edema was induced in mice by injection into the right hind paws of 50 μL, of sterile saline containing 1% λ-carrageenan. Paw volumes were measured using a plethysmometer (Ugo Basile, Milan, Italy). […] The increase in paw volume (mL) was evaluated as the difference between the paw volume measured at each time point and the basal paw volume measured immediately before carrageenan injection.

[4] = system: carrageenan-induced hyperalgesia in male CD1 mice; experiment: Carrageenan-induced mechanical hyperalgesia; type: in vivo, mouse; conditions: oral administration, p<0.001 vs. vehicle (FIG. 2)
Experimental: as §2
(§3) Nocifensive responses were measured elicited by intraplantar injection of carrageenan in male CD1 mice (LoVerme, J., La Rana, G., Russo, R., Calignano, A., & Piomelli, D., The search for the palmitoylethanolamide receptor. Life Sci 77 (14), 1685-1698 (2005)).
(§4) Mechanical hyperalgesia was determined by measuring the latency in seconds to withdraw the paw away from a constant mechanical pressure exerted onto the dorsal surface. […] Withdrawal threshold was measured on the inflamed ipsilateral paw at different time points after oral drug administration. […] Thermal hyperalgesia was assessed as described (Hargreaves, K., Dubner, R., Brown, F., Flores, C., & Joris, J., A new and sensitive method for measuring thermal nociception in cutaneous hyperalgesia. Pain 32 (1), 77-88 (1988)), measuring the latency to withdraw the hindpaw from a focused beam of radiant heat (thermal intensity: infrared 3.0) applied to the plantar surface using a plantar test apparatus (Ugo Basile, Italy). […] Withdrawal latency was measured on the inflamed ipsilateral paw at different time points after oral drug administration. […]

[5] = system: carrageenan-induced hyperalgesia in male CD1 mice; experiment: Carrageenan-induced thermal hyperalgesia; type: in vivo, mouse; conditions: oral administration, p<0.001 vs. vehicle (FIG. 3)
Experimental: as §2, §3, §4

[6] = Brain entry after systemic administration in mice; type: in vivo, mouse; conditions: inferred from Table 3
Excerpt: The activity of compounds of Formula I as peripherally restricted FAAH inhibitors was found based in part on the polarity of the p-hydroxyphenyl moiety.

FAAH [7] = molecular target: T1, FAAH; experiment: FAAH activity and anandamide levels outside the CNS; set-up: suppressed FAAH activity and increased anandamide levels outside the central nervous system (CNS); from tissue; host or cells: peripheral tissues of the dosed animal, not specified; conditions: in vivo
Excerpt: Peripheral cannabinoid receptors exert a powerful inhibitory control over pain initiation, but the endogenous cannabinoid signal that normally engages this intrinsic analgesic mechanism is unknown.

[8] = system: rodent models of inflammation and peripheral nerve injury; experiment: Rodent models of inflammation and peripheral nerve injury (persistent pain); type: in vivo; conditions: prevented by CB1 receptor blockade
Excerpt: (§5) Peripheral cannabinoid receptors exert a powerful inhibitory control over pain initiation, but the endogenous cannabinoid signal that normally engages this intrinsic analgesic mechanism is unknown. […] CB1 receptor blockade prevents these effects. […] Accordingly, relatively brain-impermeant FAAH inhibitors, which strengthen this gating mechanism, offer a new approach to pain therapy (see, U.S. Provisional Patent Application Ser. No. 61/368,500, filed on Jul. 28, 2010, which is incorporated herein by reference in its entirety for all purposes, and specifically with respect to methods of assaying FAAH inhibitors for their biological and pharmaceutical properties, and the pharmacological properties of peripherally restricted FAAH inhibitors in general).

[9] = Transport system mediated extrusion from brain; conditions: in vivo
Excerpt: as §5

[10] = brain membrane fraction, read-out: FAAH inhibition in brain
[11] = liver membrane fraction, read-out: FAAH inhibition in liver

## NC(=O)c1cccc(-c2cc(OC(=O)NC3CCCCC3)ccc2C(=O)O)c1 [ARN0715]
FAAH [1]; Table 2 (Example 5), brain
  FAAH inhibition in brain: −2.1 ± 0.5%
FAAH [1]; Table 2 (Example 5), liver
  FAAH inhibition in liver: 86.3 ± 1.3%
FAAH [2]; Table 2 (Example 5)
  IC50: 2100 nM

## NC(=O)c1cccc(-c2cc(O)cc(OC(=O)NC3CCCCC3)c2)c1 [Compound 1, [3-(3-carbamoylphenyl)-5-hydroxy-phenyl]N-cyclohexylcarbamate]
[3]
  difference between paw volume at each time point and basal paw volume (carrageenan-induced edema): reduced
[4]
  withdrawal threshold on inflamed ipsilateral paw, mechanical hyperalgesia test: increased
[5]
  withdrawal threshold on inflamed ipsilateral paw, thermal hyperalgesia test: increased
FAAH [1]; [10]
  inhibition at 1 mg/kg: -4.2 ± 2.5%
FAAH [1]; [11]
  inhibition at 1 mg/kg: 89.5 ± 1.1%

## COc1ccc(OC(=O)NC2CCCCC2)cc1-c1cccc(C(N)=O)c1 [Compound 1c]
[6]
  entry into the brain after systemic administration: enter the brain

## Cc1ccc(OC(=O)NC2CCCCC2)cc1-c1cccc(C(N)=O)c1 [Compound 1d]
[6]
  entry into the brain after systemic administration: enter the brain

## NC(=O)c1cccc(-c2cc(OC(=O)NC3CCCCC3)ccc2F)c1 [Compound 1e]
[6]
  entry into the brain after systemic administration: enter the brain

## NC(=O)c1cccc(-c2cc(OC(=O)NC3CCCCC3)ccc2N)c1 [Compound 1f]
[6]
  entry into the brain after systemic administration: largely excluded

## CNC(=O)c1cccc(-c2cc(O)cc(OC(=O)NC3CCCCC3)c2)c1 [Compound 2, [3-hydroxy-5-[3-(methylcarbamoyl)phenyl]phenyl]N-cyclohexylcarbamate]
FAAH [1]; [10]
  inhibition at 1 mg/kg: -1.7 ± 0.2%
FAAH [1]; [11]
  inhibition at 1 mg/kg: 69.1 ± 3.5%
FAAH [2]; Table 1, in vitro FAAH assay
  IC50: 0.3 nM

## NC(=O)c1cccc(-c2cc(OC(=O)NC3CCCCC3)ccc2O)c1 [URB937]
FAAH [7]
  FAAH activity outside the central nervous system (CNS): suppressed
  anandamide levels outside the central nervous system (CNS): increased
[8]
  noxious stimulus-evoked neuronal activation in spinal cord regions implicated in nociceptive processing: suppresses
[8]; rodent models of inflammation and peripheral nerve injury
  behavioral responses indicative of persistent pain: attenuated
[9]
  susceptibility to transport system mediated extrusion from brain: surprisingly susceptible
